ChEMBL document CHEMBL1133899, “Amino acid derived sulfonamide hydroxamates as inhibitors of procollagen C-proteinase: solid-phase synthesis of ornithine analogues” (Bioorg Med Chem Lett, 2001)

Biological target: T1, Bone morphogenetic protein 1 (Homo sapiens, UniProt P13497)
T1 sequence (P13497 whole entry): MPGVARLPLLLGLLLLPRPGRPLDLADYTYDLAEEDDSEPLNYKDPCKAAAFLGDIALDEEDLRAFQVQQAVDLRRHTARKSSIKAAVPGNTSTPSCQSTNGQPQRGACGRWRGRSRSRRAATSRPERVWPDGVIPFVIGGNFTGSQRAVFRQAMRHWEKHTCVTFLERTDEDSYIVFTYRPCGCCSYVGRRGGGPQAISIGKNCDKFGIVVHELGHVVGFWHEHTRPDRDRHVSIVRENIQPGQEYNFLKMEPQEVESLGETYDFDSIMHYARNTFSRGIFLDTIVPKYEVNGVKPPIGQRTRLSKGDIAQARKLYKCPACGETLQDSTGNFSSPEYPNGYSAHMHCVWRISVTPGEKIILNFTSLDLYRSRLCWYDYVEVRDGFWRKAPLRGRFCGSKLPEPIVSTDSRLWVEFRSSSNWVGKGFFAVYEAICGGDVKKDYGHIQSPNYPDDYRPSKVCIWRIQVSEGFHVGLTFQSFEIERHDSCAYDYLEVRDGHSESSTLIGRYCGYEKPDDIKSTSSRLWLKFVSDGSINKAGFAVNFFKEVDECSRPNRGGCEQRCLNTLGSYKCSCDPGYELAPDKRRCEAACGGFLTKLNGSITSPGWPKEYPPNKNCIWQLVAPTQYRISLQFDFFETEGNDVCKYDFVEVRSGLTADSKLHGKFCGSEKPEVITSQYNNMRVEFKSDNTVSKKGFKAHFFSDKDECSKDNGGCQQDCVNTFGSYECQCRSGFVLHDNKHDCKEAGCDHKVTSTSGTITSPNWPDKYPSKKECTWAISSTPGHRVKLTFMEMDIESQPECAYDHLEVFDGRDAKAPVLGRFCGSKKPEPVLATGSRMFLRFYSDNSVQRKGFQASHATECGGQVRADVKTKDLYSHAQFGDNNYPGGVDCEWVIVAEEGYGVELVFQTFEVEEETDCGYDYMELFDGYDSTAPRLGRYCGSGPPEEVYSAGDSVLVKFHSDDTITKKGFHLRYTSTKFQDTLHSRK
Test: Inhibitory activity against procollagen C-Proteinase (PCP).

Compared with `COc1ccc(S(=O)(=O)N(C)[C@H](CCCNC(=O)Nc2ccccc2)C(=O)NO)cc1`, `COc1ccc(S(=O)(=O)N(C)[C@H](CCCNC(=O)Nc2ccccc2Cl)C(=O)NO)cc1` is 4.5-fold higher in IC50: 1600 nM for the first, 7200 nM for the second.

`COc1ccc(S(=O)(=O)N(Cc2ccc3c(c2)OCO3)[C@H](CCCNC(=O)NCc2cccc(C)c2)C(=O)NO)cc1` and `COc1ccc(S(=O)(=O)N(Cc2ccc3c(c2)OCO3)[C@H](CCCNC(=O)NCc2ccccc2)C(=O)NO)cc1` are within 1.5-fold of each other in IC50: 50 nM for the first, 58 nM for the second.

Compared with `COc1ccc(S(=O)(=O)N[C@@H](CCCNC(=O)N[C@H](C)c2ccccc2)C(=O)NO)cc1`, `COc1ccc(S(=O)(=O)N[C@H](CCCNC(=O)N[C@H](C)c2ccccc2)C(=O)NO)cc1` is 19-fold lower in IC50: 2100 nM for the first, 110 nM for the second.

Going from `COc1ccc(S(=O)(=O)N[C@H](CCCNC(=O)C(C)C)C(=O)NO)cc1` to `COc1ccc(S(=O)(=O)N[C@H](CCCNC(=O)OC(C)(C)C)C(=O)NO)cc1`, the IC50 rises from 1400 nM to 4500 nM (3.2-fold). The first is the more potent here.

Going from `C[C@@H](NC(=O)NCCC[C@@H](NS(=O)(=O)c1ccc(S(=O)(=O)c2cccs2)cc1)C(=O)NO)c1ccccc1` to `C[C@@H](NC(=O)NCCC[C@@H](NS(=O)(=O)c1ccc(Cl)cc1)C(=O)NO)c1ccccc1`, the IC50 falls from 5000 nM to 910 nM (5.5-fold).

First: COc1ccc(S(=O)(=O)N(Cc2ccc3c(c2)OCO3)[C@H](CCCNC(=O)NCCc2ccccc2)C(=O)NO)cc1
Second: COc1ccc(S(=O)(=O)N(Cc2ccc3c(c2)OCO3)[C@H](CCCNC(=O)OCc2ccccc2)C(=O)NO)cc1
The IC50 of the first is 5.6-fold higher: 50 nM for the first, 9 nM for the second. The second is the more potent here.

Going from `COc1ccc(S(=O)(=O)N[C@H](CCCNC(=O)Nc2ccccc2Cl)C(=O)NO)cc1` to `COc1ccc(S(=O)(=O)N[C@@H](CCCNC(=O)Nc2ccccc2Cl)C(=O)NO)cc1`, the IC50 rises from 92 nM to 7800 nM (85-fold).

`COc1ccc(S(=O)(=O)N[C@H](CCCNC(=S)NCc2ccccc2)C(=O)NO)cc1` and `COc1ccc(S(=O)(=O)N[C@H](CCCNC(=O)CCc2ccccc2)C(=O)NO)cc1` are within 1.5-fold of each other in IC50: 990 nM for the first, 970 nM for the second.

Going from `CCCNC(=O)NCCC[C@H](C(=O)NO)N(Cc1ccc2c(c1)OCO2)S(=O)(=O)c1ccc(OC)cc1` to `CCOC(=O)NCCC[C@H](C(=O)NO)N(Cc1ccc2c(c1)OCO2)S(=O)(=O)c1ccc(OC)cc1`, the IC50 rises from 97 nM to 220 nM (2.3-fold).

First: COc1ccc(S(=O)(=O)N(Cc2ccc3c(c2)OCO3)[C@H](CCCNC(=O)c2ccccc2)C(=O)NO)cc1
Second: COc1ccc(S(=O)(=O)N(Cc2ccc3c(c2)OCO3)[C@H](CCCNC(=O)OCc2ccccc2Br)C(=O)NO)cc1
The IC50 of the first is 4.1-fold higher: 98 nM for the first, 24 nM for the second.

First: COc1ccc(S(=O)(=O)N(C)[C@H](CCCNC(=O)NC(C)c2ccccc2)C(=O)NO)cc1 (stereo partly specified)
Second: COc1ccc(S(=O)(=O)N[C@H](CCCNC(=O)Nc2ccccc2)C(=O)NO)cc1
The IC50 of the first is 42-fold higher: 2300 nM for the first, 55 nM for the second. The second is the more potent here.

`COc1ccc(S(=O)(=O)N(Cc2ccc3c(c2)OCO3)[C@H](CCCNC(=O)OCc2ccc([N+](=O)[O-])cc2)C(=O)NO)cc1` and `COc1ccc(S(=O)(=O)N(Cc2ccc3c(c2)OCO3)[C@H](CCCNC(=O)OCc2cccc([N+](=O)[O-])c2)C(=O)NO)cc1` are within 1.5-fold of each other in IC50: 45 nM for the first, 38 nM for the second.

First: COC(=O)[C@@H](Cc1ccccc1)NC(=O)NCCC[C@H](NS(=O)(=O)c1ccc(OC)cc1)C(=O)NO
Second: COC(=O)[C@@H](Cc1ccccc1)NC(=O)NCCC[C@@H](NS(=O)(=O)c1ccc(OC)cc1)C(=O)NO
The IC50 of the first is 42-fold higher: 5900 nM for the first, 140 nM for the second. The second is the more potent here.

Going from `COc1ccc(S(=O)(=O)N(Cc2cccnc2)[C@@H](C(=O)NO)C(C)C)cc1` [CGS-27023A] to `COc1ccc(S(=O)(=O)N(Cc2ccc3c(c2)OCO3)[C@H](CCCNC(=O)OCC(C)C)C(=O)NO)cc1`, the IC50 falls from 3000 nM to 45 nM (67-fold).

Compared with `COc1ccc(S(=O)(=O)N[C@@H](CCCNC(=O)Nc2cccc(F)c2)C(=O)NO)cc1`, `COc1ccc(S(=O)(=O)N[C@H](CCCNC(=O)Nc2cccc(F)c2)C(=O)NO)cc1` is 25-fold lower in IC50: 4000 nM for the first, 160 nM for the second.

First: COc1ccc(S(=O)(=O)N[C@@H](CCCNC(=O)N[C@H](C)c2cccc3ccccc23)C(=O)NO)cc1
Second: COc1ccc(S(=O)(=O)N[C@H](CCCNC(=O)N[C@H](C)c2cccc3ccccc23)C(=O)NO)cc1
The IC50 of the first is 10-fold higher: 1600 nM for the first, 160 nM for the second. The second is the more potent here.

First: COc1ccc(S(=O)(=O)N[C@H](CCCNS(=O)(=O)c2ccccc2)C(=O)NO)cc1
Second: COc1ccc(S(=O)(=O)N[C@@H](CCCNC(=O)Nc2ccccc2)C(=O)NO)cc1
The IC50 of the first is 2-fold lower: 3400 nM for the first, 6900 nM for the second. The first is the more potent here.

Going from `COc1ccc(S(=O)(=O)N[C@H](CCCNC(=O)C2CC2)C(=O)NO)cc1` to `COc1ccc(S(=O)(=O)N[C@H](CCCNC(=O)C2CCCCC2)C(=O)NO)cc1`, the IC50 rises from 770 nM to 1600 nM (2.1-fold).

Compared with `COc1ccc(S(=O)(=O)N[C@@H](CCCNC(=O)NC2CCCCC2)C(=O)NO)cc1`, `COc1ccc(S(=O)(=O)N[C@H](CCC/N=C(\S)NC2CCCCC2)C(=O)NO)cc1` is 2.1-fold lower in IC50: 3600 nM for the first, 1700 nM for the second.

First: C[C@@H](NC(=O)NCCC[C@@H](NS(=O)(=O)c1ccc(F)cc1Cl)C(=O)NO)c1ccccc1
Second: C[C@@H](NC(=O)NCCC[C@@H](NS(=O)(=O)c1ccccc1Cl)C(=O)NO)c1ccccc1
The IC50 of the first is 27-fold higher: 61000 nM for the first, 2300 nM for the second.

First: COc1ccc(S(=O)(=O)N[C@H](CCCNC(=O)NCCc2cccs2)C(=O)NO)cc1
Second: COc1ccc(S(=O)(=O)N[C@@H](CCCNC(=O)NCCc2cccs2)C(=O)NO)cc1
The IC50 of the first is 71-fold lower: 78 nM for the first, 5500 nM for the second.

Compared with `COc1ccc(S(=O)(=O)N[C@H](CCCNC(=O)N[C@@H]2C[C@H]2c2ccccc2)C(=O)NO)cc1`, `COc1ccc(S(=O)(=O)N[C@@H](CCCNC(=O)NC2CC2c2ccccc2)C(=O)NO)cc1` (stereo partly specified) is 1.7-fold higher in IC50: 170 nM for the first, 290 nM for the second. The first is the more potent here.

Going from `COc1ccc(S(=O)(=O)N[C@H](CCCNC(=O)Nc2ccccc2C)C(=O)NO)cc1` to `COc1cc(C)c(S(=O)(=O)N[C@H](CCCNC(=O)N[C@H](C)c2ccccc2)C(=O)NO)c(C)c1`, the IC50 rises from 260 nM to 23000 nM (88-fold).

Compared with `C[C@@H](NC(=O)NCCC[C@@H](NS(=O)(=O)c1ccc(Cl)s1)C(=O)NO)c1ccccc1`, `COc1ccc(S(=O)(=O)N(Cc2ccc3c(c2)OCO3)[C@H](CCCNC(=O)OCc2ccccc2Cl)C(=O)NO)cc1` is 2500-fold lower in IC50: 9600 nM for the first, 3.9 nM for the second. The second is the more potent here.

Work on `COc1ccc(S(=O)(=O)N(Cc2ccc3c(c2)OCO3)[C@H](CCCNC(=O)NCc2cccc3ccccc23)C(=O)NO)cc1` yielded an IC50 of 120 nM.

Biological target: T1, Bone morphogenetic protein 1
Test: The compound was evaluated for its inhibitory effect against Procollagen C-terminal proteinase

First: COc1ccc(S(=O)(=O)N[C@H](CCCNC(=O)NC2CCCCC2)C(=O)NO)cc1
Second: COc1ccc(S(=O)(=O)N[C@H](CCCNC(=O)N[C@H](C)c2ccccc2)C(=O)NO)cc1
The IC50 of the first is 2.1-fold higher: 230 nM for the first, 110 nM for the second. The second is the more potent here.
